target: T1, Autotaxin enzyme (ATX) (Homo sapiens, UniProt Q13822); assay: In vitro ATX assay (enzymatic ATX inhibition, LPC 14:0 substrate, choline oxidase/HRP absorbance readout); assay type: biochemical; settings: 0.3 mM LPC 14:0, 37° C., 4 hours, absorbance 555 nm
T1 construct: purchased Echelon Biosciences, Inc. E-4000
In short: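 Human ATX (10 ng/mL as added) in pH 9.0 Tris buffer with NaCl, MgCl2, CoCl2 and Triton X-100 was preincubated with compound for 15 min at 37 °C. LPC 14:0 (0.3 mM final) was then hydrolysed for 4 h at 37 °C. Released choline was detected by choline oxidase/HRP with 4-AAP/TOOS, read after 15 min RT as absorbance at 555 nm, giving banded IC50 values.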

Compared with `CC(=O)N1CC2(CCN2C(=O)c2cnc(NC3Cc4ccc(Cl)cc4C3)nc2)C1` (stereo not drawn) [Example 154, 1-(1-(2-((5-Chloro-2,3-dihydro-1H-inden-2-yl)amino)pyrimidine-5-carbonyl)-1,6-diazaspiro[3.3]heptan-6-yl)ethanone], `CC(C)Oc1ccc2c(c1)CC(Nc1ncc(C(=O)N3CCC34COC4)cn1)C2` (stereo not drawn) [Example 161, (2-((5-Isopropoxy-2,3-dihydro-1H-inden-2-yl)amino)pyrimidin-5-yl)(6-oxa-1-azaspiro[3.3]heptan-1-yl)methanone] is higher in IC50: under 100 nM for the first, 100 to 1000 nM for the second. The first is the more potent here.

`CN1CCC2(CCN2C(=O)c2cnc(NCc3cc(OC(F)(F)F)cc(C4CC4)c3)nc2)C1` (stereo not drawn) [Example 155, (2-((3-Cyclopropyl-5-(trifluoromethoxy)benzyl)amino)pyrimidin-5-yl)(6-methyl-1,6-diazaspiro[3.4]octan-1-yl)methanone] and `CN1CCCC2(CCN2C(=O)c2cnc(NCc3cc(OC(F)(F)F)cc(C4CC4)c3)nc2)C1` (stereo not drawn) [Example 156, (2-((3-Cyclopropyl-5-(trifluoromethoxy)benzyl)amino)pyrimidin-5-yl)(6-methyl-1,6-diazaspiro[3.5]nonan-1-yl)methanone] cannot be ordered by IC50: under 100 nM for the first, under 100 nM for the second.

`CN1CC2(CCCN2C(=O)c2cnc(NCc3cc(OC(F)(F)F)cc(C4CC4)c3)nc2)C1` [Example 157, (2-((3-Cyclopropyl-5-(trifluoromethoxy)benzyl)amino)pyrimidin-5-yl)(2-methyl-2,5-diazaspiro[3.4]octan-5-yl)methanone] and `O=C(c1cnc(NCc2cc(OC(F)(F)F)cc(N3CCC3)c2)nc1)N1CCC12COC2` [Example 158, (2-((3-(Azetidin-1-yl)-5-(trifluoromethoxy)benzyl)amino)pyrimidin-5-yl)(6-oxa-1-azaspiro[3.3]heptan-1-yl)methanone] cannot be ordered by IC50: under 100 nM for the first, under 100 nM for the second.

`CCOc1cc(CNc2ncc(C(=O)N3CCC34COC4)cn2)cc(OC(C)C)c1` [Example 159, (2-((3-Ethoxy-5-isopropoxybenzyl)amino)pyrimidin-5-yl) (6-oxa-1-azaspiro[3.3]heptan-1-yl)methanone] and `CCOc1cc(CNc2ncc(C(=O)N3CCC3C(C)(C)O)cn2)cc(OC(C)C)c1` (stereo not drawn) [Example 160, (2-((3-Ethoxy-5-isopropoxybenzyl)amino)pyrimidin-5-yl) (2-(2-hydroxypropan-2-yl)azetidin-1-yl)methanone] cannot be ordered by IC50: under 100 nM for the first, under 100 nM for the second.

In the case of `CCOc1ccc2c(c1)CC(Nc1ncc(C(=O)N3CCC34COC4)cn1)C2` (stereo not drawn) [Example 162, (2-((5-Ethoxy-2,3-dihydro-1H-inden-2-yl)amino)pyrimidin-5-yl)(6-oxa-1-azaspiro[3.3]heptan-1-yl)methanone], the IC50 is reported as 100 to 1000 nM.

Reference: US20210363152A1, “AMINOAZINE AMIDES” (Hoffmann-La Roche Inc., priority 2018, published 2021)
